# Laboratory results: patent US20060204443A1, “Methods for tumor treatment using dendrimer conjugates” (The Government of the USA as represented by the Secretary …, priority 2005, published 2006)
# Several values for one entry are separate records, joined by “and”; a condition that tells them apart may be missing. Identical values can stand only once.
# Experiments:
# [1] = tested on: Draining Lymph Nodes (LNs) from the Normal Breast Tissue; test: Dynamic micro-MR mammo-lymphangiography after injection into normal mammary gland (Example 1); type: in vivo, mice
# Description: Mice were anesthetized with 1.15 mg sodium pentobarbital (Dainabot, Osaka, Japan), and then injected with 0.15-0.24 μmol Gd/5-8 μL of the PAMAM-G6 contrast agent into normal mammary glands or mammary tissue surrounding a tumor (peritumorally). Dynamic micro-MR images were obtained using a 1.5-Tesla superconductive magnet unit (Signa LX, General Electric Medical System, Milwaukee, Wis.) with a birdcage type coil of 3 cm diameter fixed by a custom made coil holder. Single and double “breast coils” used for imaging breasts in humans are commercially available, for example, from GE Medical Systems (Milwaukee, Wis.) and are routinely available in outpatient MRI centers. The mice were wrapped with gauze to stabilize their body temperature and were placed at the center of the coils.
# In order to evaluate the lymphatic drainage from the normal mammary gland of either Balb/c mice (n=5) or athymic nu/nu mice (n=5), 3D-fast spoiled gradient echo (3D-fastSPGR (efgre3d package; Signa Horizon, GE); repetition time/echo time 19.2/7.2 msec; inversion time 47 msec; 31.2 kHz, flip angle 30°, 4 excitations; 36 slice encoding steps; scan time 4 min 49 seconds) with chemical shift fat-suppression was used 6, 12, 18, 24, 30, 36, 42, and 48 min after injection of the contrast agent. The coronal images were reconstructed with 0.6-mm section thickness every 0.3-mm. The field of view was 8×4 cm and the size of the matrix was 512×256. The slice data were processed into 3D images using the maximum intensity projection (MIP) method with the same window and level (window 3500 and level 2100) (Advantage Windows, General Electric Medical System). After imaging, the mice were sacrificed by carbon dioxide inhalation.
# Athymic nu/nu mice (n=4) were anesthetized and injected with 0.15 μmol Gd of GPDM into the mammary gland, and images were taken 12, 24, and 36 min after injection. Following these three images, these mice were subsequently injected with 0.15 μmol Gd of PAMAM-G6 contrast agent in the mammary gland, and images were taken at 12 and 24 min post-injection of the PAMAM-G6 contrast agent (at 48 and 60 min post-injection of GPDM).
# [2] = tested on: lymphatic drainage from tumor-bearing mammary glands; test: MR mammo-lymphangiography in breast tumor models (BALB-neuT, PT-18 xenograft); type: in vivo, mice
# From the text: The breast-tumor bearing mice were thirty one week-old BALB-neuT mice (n=3) transgenic for the rat HER-2/neu (Erb B2) oncogene under the control of the mouse mammary tumor virus promotor (MMTV). […] BALB-neuT mice were used because of their spontaneous development of bilateral breast cancers and lymph node metastases. Heterozygous female BALB-neuT mice (BALB/c background) develop mammary gland lobule hyperplasia at 5-6 weeks of age that progresses to atypical hyperplasia by 8-9 weeks, followed by in situ carcinoma by 14 weeks, becoming invasive carcinoma usually by 21 week of age. Rovero et al., J. Immunol.; 165:5133-42, 2000. Most metastatic lymph nodes from the mouse mammary pad localize in the neck, lateral thoracic, or axillary region.
# Tumor xenografts of PT-18, a murine mast cell line, were introduced into the left mammary pad in athymic nu/nu mice. When 10^7 PT-18 cells were injected in the left mammary pad of 10 athymic nu/nu mice, six mice developed tumor masses in the left axillary lymph nodes within three weeks.
# Mice were anesthetized with 1.15 mg sodium pentobarbital (Dainabot, Osaka, Japan), and then injected with 0.15-0.24 μmol Gd/5-8 μL of the PAMAM-G6 contrast agent into normal mammary glands or mammary tissue surrounding a tumor (peritumorally). Dynamic micro-MR images were obtained using a 1.5-Tesla superconductive magnet unit (Signa LX, General Electric Medical System, Milwaukee, Wis.) with a birdcage type coil of 3 cm diameter fixed by a custom made coil holder. Single and double “breast coils” used for imaging breasts in humans are commercially available, for example, from GE Medical Systems (Milwaukee, Wis.) and are routinely available in outpatient MRI centers. The mice were wrapped with gauze to stabilize their body temperature and were placed at the center of the coils. […]
# [3] = Serum phantoms: T1-weighted MRI signal intensity vs G6 agent concentration; type: physicochemical; conditions: FIG. 21B
# From the text: In order to verify the correlation between T1-weighted MRI signal intensity and concentration of G6 agent, serum phantoms were made containing various concentrations of the G6 agent with a bovine serum (GIBCO, Invitrogen Co., Carlsbad, Calif.) and MR images were obtained with the same imaging technique as shown above. Three sets of phantoms, high ([…]-40 mMGd), intermediate (0.1-1 mMGd) and low (0.01-0.1 mMGd) concentrations, were studied. A sample of Gd-DTPA was used as an internal control.
# [4] = PT-18 model, peritumoral injection
substance,measurement,setting,value
PAMAM-G6D-(Gd-1B4M)256 dendrimer conjugate,"Visualized LNs/Total Examined LNs, Axillary LN",[1]; 6 min after injection,visualized at the initial (6 min) time point in all 10 mice and 10/10
same,"Visualized LNs/Total Examined LNs, Lateral thoracic LN",[1]; 6 min after injection,0/10
same,"Visualized LNs/Total Examined LNs, Superficial cervical LN",[1]; 6 min after injection,1/10
same,"Visualized LNs/Total Examined LNs, Axillary LN",[1]; 12 min after injection,10/10
same,"Visualized LNs/Total Examined LNs, Lateral thoracic LN",[1]; 12 min after injection,1/10
same,"Visualized LNs/Total Examined LNs, Superficial cervical LN",[1]; 12 min after injection,1/10
same,"Visualized LNs/Total Examined LNs, Axillary LN",[1]; 18 min after injection,10/10
same,"Visualized LNs/Total Examined LNs, Lateral thoracic LN",[1]; 18 min after injection,2/10
same,"Visualized LNs/Total Examined LNs, Superficial cervical LN",[1]; 18 min after injection,1/10
same,"Visualized LNs/Total Examined LNs, Axillary LN",[1]; 24 min after injection,10/10
same,"Visualized LNs/Total Examined LNs, Lateral thoracic LN",[1]; 24 min after injection,4/10
same,"Visualized LNs/Total Examined LNs, Superficial cervical LN",[1]; 24 min after injection,2/10
same,"Visualized LNs/Total Examined LNs, Axillary LN",[1]; 30 min after injection,10/10
same,"Visualized LNs/Total Examined LNs, Lateral thoracic LN",[1]; 30 min after injection,4/10
same,"Visualized LNs/Total Examined LNs, Superficial cervical LN",[1]; 30 min after injection,2/10
same,"Visualized LNs/Total Examined LNs, Axillary LN",[1]; 36 min after injection,10/10
same,"Visualized LNs/Total Examined LNs, Lateral thoracic LN",[1]; 36 min after injection,5/10
same,"Visualized LNs/Total Examined LNs, Superficial cervical LN",[1]; 36 min after injection,3/10
same,"Visualized LNs/Total Examined LNs, Axillary LN",[1]; 42 min after injection,10/10
same,"Visualized LNs/Total Examined LNs, Lateral thoracic LN",[1]; 42 min after injection,6/10
same,"Visualized LNs/Total Examined LNs, Superficial cervical LN",[1]; 42 min after injection,3/10
same,"Visualized LNs/Total Examined LNs, Axillary LN",[1]; 48 min after injection,10/10
same,"Visualized LNs/Total Examined LNs, Lateral thoracic LN",[1]; 48 min after injection,6/10
same,"Visualized LNs/Total Examined LNs, Superficial cervical LN",[1]; 48 min after injection,3/10
same,Visualization of draining lymph nodes and lymphatic vessels (FIG. 5),"[1]; athymic nu/nu mice, 0.15 μmol Gd into the mammary gland, GPDM imaged at 12, 24, 36 min, then PAMAM-G6",clearly visualized
same,Imaging of enlarged metastatic lymph nodes and dilated lymphatic vessels,[2]; BALB-neuT model,clearly imaged
same,Enhancement of axillary lymph node tissue with metastatic tumor cells,[2]; [4],did not shown enhancement
same,Lymphatic vessel flowing into the lymph node with a metastatic tumor,[2]; [4],dilated and showed enhancement
same,T1 relaxivity,[3],much higher T1 relaxivity than Gd-DTPA
